Results on three compounds are retold here after patent US20150164907A1, “COMPOSITIONS AND METHODS FOR TREATING DISEASE” (ANGION BIOMEDICA CORP., priority 2013, published 2015).

The subject of the experiment is SK-BR-3 breast cancer cells. Briefly: Proliferation of SK-BR-3 breast cancer cells, checkerboard design, Cell Titer Glo after 7 days. In kind it is cell-based. Particulars: for IC50: Homo sapiens. On the procedure: The effect of ATRA in combination with GDC-0941 or NVP-BEZ235 on the proliferation of SK-BR-3 breast cancer cells was evaluated. […] To test the combination of ATRA and PI3Km/TOR inhibitors, cells were plated in a 96-well plate and treated with compounds in a “checkerboard” design. After 7 days the cell proliferation was determined using the Cell Titer Glo reagent (Promega). […] The bliss additivity model predicts the shape of the curve and magnitude of growth inhibition if the effects of two compounds is additive.
Another method to determine the interaction between two compounds is the combination index (CI) method, which can be calculated by the computer program Calcusyn.

The mark [1] stands for this setting: SK-BR-3, 168 h, in the absence of ATRA, 7 days, read-out: estimated IC50, proliferation of SK-BR-3 growth.
[2] abbreviates: SK-BR-3, 168 h, in the presence of 10 nM ATRA, 7 days, read-out: IC50, proliferation of SK-BR-3 cells.

Like-named read-outs stand apart in the source and are kept apart here.

For `Cn1c(=O)n(-c2ccc(C(C)(C)C#N)cc2)c2c3cc(-c4cnc5ccccc5c4)ccc3ncc21` [NVP-BEZ235], the IC50 under setting [1] was 145 nM and the IC50 under setting [2] was 57 nM.
Turning to `CS(=O)(=O)N1CCN(Cc2cc3nc(-c4cccc5[nH]ncc45)nc(N4CCOCC4)c3s2)CC1` [GDC-0941, 2-(1H-indazol-4-yl)-6-(4-methanesulfonyl-piperazin-1-ylmethyl)-4-morpholin-4-yl-thieno[3,2-d]pyrimidine], the IC50 by setting is: under setting [1], 126 nM; under setting [2], 35 nM.
On to `CC1=C(/C=C/C(C)=C/C=C/C(C)=C/C(=O)O)C(C)(C)CCC1` [ATRA, all-trans retinoic acid], for which the “inhibition of cell proliferation by ATRA by itself” value (10 nM ATRA alone) is “only mildly inhibited cell proliferation”. Besides, the IC50 (SK-BR-3, ATRA alone, read-out: estimated IC50, proliferation of SK-BR-3 cells) is 40 nM.
